Measured values taken from patent publication US11559538B2, “Substituted 1,2-oxaborolan-2-ols as PDE4 inhibitors” (Pfizer Inc., priority 2018, dated 2023).

Assays:
IL-13 = assay: Cytokine assay: IL-13 release from PHA-L stimulated human PBMCs; type: cell-based; conditions: Homo sapiens, PBMC, read-out: IL13 IC50
Outline: (§1)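 Human peripheral blood mononuclear cells are pre-exposed to test compound, then activated with the T-cell mitogen PHA-L (3.5 μg/mL in the well). After two days of culture at 37° C, supernatant cytokine levels are quantified by HTRF. Potency is expressed as IC50.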

IL-4 = assay: Cytokine assay: IL-4 release from PHA-L stimulated human PBMCs; type: cell-based; conditions: Homo sapiens, PBMC, read-out: IL4 IC50
Outline: as §1

[1] = In-vitro skin permeation study (Franz cell assay); type: in vitro ADME; conditions: N=15 (3 skin donors, 5 replicates per donor)
Method: Topical formulations prepared containing Example 4 that were tested for skin permeability and maximum flux of Example 4 are listed in Table 13.
A higher driving force can be achieved via incorporation into the formulations of additional penetration enhancers such as oleyl alcohol.

IFNγ = assay: Cytokine assay: IFNγ release from PHA-L stimulated human PBMCs; type: cell-based; conditions: Homo sapiens, PBMC
Outline: as §1

[2] = molecular target: PDE4B (aa 152-484, Uniprot ID Q07343) (Homo sapiens (Human), UniProt Q07343); assay: PDE4 SPA assay (scintillation proximity assay); type: biochemical; conditions: read-out: PDE4B2 IC50
Outline: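 Scintillation proximity read-out after a 30 min room-temperature reaction of ~81.6 pM PDE4B catalytic fragment (aa 152-484) with 1 μM tritiated/unlabeled cAMP, pH 7.5 Tris buffer with MgCl2 and Brij 35. Compound given ~10 min beforehand, 4-fold dilutions, ~2% DMSO; IC50 from four-parameter logistic curve.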

[3] = 0.01% Example 4 ointment formulation from Table 13
[4] = 0.1% Example 4 ointment formulation from Table 13
[5] = 1% Example 4 ointment formulation from Table 13

Chain of PDE4B (aa 152-484, Uniprot ID Q07343) (Q07343 324-656): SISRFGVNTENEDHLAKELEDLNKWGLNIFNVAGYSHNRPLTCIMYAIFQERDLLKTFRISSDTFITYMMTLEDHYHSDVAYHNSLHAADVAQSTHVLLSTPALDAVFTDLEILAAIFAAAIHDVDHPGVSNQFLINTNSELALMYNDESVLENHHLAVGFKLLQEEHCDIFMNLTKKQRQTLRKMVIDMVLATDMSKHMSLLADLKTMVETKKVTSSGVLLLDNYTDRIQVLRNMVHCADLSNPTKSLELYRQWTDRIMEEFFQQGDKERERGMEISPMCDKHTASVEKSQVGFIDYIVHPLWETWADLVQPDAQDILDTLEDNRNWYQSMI

IC50 (IL-13) [nM] | IC50 (IL-4) [nM] | Mean, Cumulative Amount in 24 hours [1, 3] [ng] | Mean, Max. Flux [1, 3] [ng/cm^2/hr] | Mean, Cumulative Amount in 24 hours [1, 4] [ng] | Mean, Max. Flux [1, 4] [ng/cm^2/hr] | Mean, Cumulative Amount in 24 hours [1, 5] [ng] | Mean, Max. Flux [1, 5] [ng/cm^2/hr] | IC50 (IFNγ) [nM] | IC50 [2] [nM] | SMILES
135 | 4.11 | 233.0 | 20.14 | 1089.9 | 73.95 | 3357.7 | 252.28 | 1.06 | 0.5 | CCCOc1cc(-c2cncc([C@@H]3COB(O)C3)c2)ccc1OC [Example 4, (R) 4-(5-(4-methoxy-3-propoxyphenyl)pyridin-3-yl)-1,2-oxaborolan-2-ol]
2980 | 5.75 | – | – | – | – | – | – | 1.3 | 3.38 | CCOc1cc(-c2nc(OC)cc(C3COB(O)C3)n2)ccc1OC (centres unmarked) [Example 185, 4-(2-(3-ethoxy-4-methoxyphenyl)-6-methoxypyrimidin-4-yl)-1,2-oxaborolan-2-ol]
